Results published in PubChem BioAssay AID2060908 (Molecular Pharmacology Branch, DTP, NCI, 2025).

System: 186277-243-T-J2-PDC complex spheroids, viability
Experiment: Anticancer human tumor 186277-243-T-J2-PDC patient-derived colon adenocarcinoma cell line growth inhibition [RAS]
Conditions: for IC50: curve of first compound; for viability, T/C: stronger effect = lower value
Summary of the method: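 Multi-cell-type spheroids: tumor cells plus HUVEC endothelial cells and mesenchymal stem cells. RAS-pathway inhibitors were combined with targeted agents, each dosed in half-log steps down from clinical Cmax, or from 10 microM when Cmax was unknown.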

[1] = second compound 0.000949 µM, first compound 0.0316 µM
[2] = second compound 0.000949 µM, first compound 0.1 µM
[3] = second compound 0.000949 µM, first compound 0.316 µM
[4] = second compound 0.000949 µM, first compound 1 µM
[5] = second compound 0.003 µM, first compound 0.0316 µM
[6] = second compound 0.003 µM, first compound 0.1 µM
[7] = second compound 0.003 µM, first compound 0.316 µM
[8] = second compound 0.003 µM, first compound 1 µM
[9] = second compound 0.00949 µM, first compound 0.0316 µM
[10] = second compound 0.00949 µM, first compound 0.1 µM
[11] = second compound 0.00949 µM, first compound 0.316 µM
[12] = second compound 0.00949 µM, first compound 1 µM
[13] = second compound 0.03 µM, first compound 0.0316 µM
[14] = second compound 0.03 µM, first compound 0.1 µM
[15] = second compound 0.03 µM, first compound 0.316 µM
[16] = second compound 0.03 µM, first compound 1 µM
[17] = second compound 0.0949 µM, first compound 0.0316 µM
[18] = second compound 0.0949 µM, first compound 0.1 µM
[19] = second compound 0.0949 µM, first compound 0.316 µM
[20] = second compound 0.0949 µM, first compound 1 µM
[21] = second compound 0.3 µM, first compound 0.0316 µM
[22] = second compound 0.3 µM, first compound 0.1 µM
[23] = second compound 0.3 µM, first compound 0.316 µM
[24] = second compound 0.3 µM, first compound 1 µM
[25] = second compound 0.000949 µM, first compound 0.00316 µM
[26] = second compound 0.000949 µM, first compound 0.01 µM
[27] = second compound 0.003 µM, first compound 0.00316 µM
[28] = second compound 0.003 µM, first compound 0.01 µM
[29] = second compound 0.00949 µM, first compound 0.00316 µM
[30] = second compound 0.00949 µM, first compound 0.01 µM
[31] = second compound 0.03 µM, first compound 0.00316 µM
[32] = second compound 0.03 µM, first compound 0.01 µM
[33] = second compound 0.0949 µM, first compound 0.00316 µM
[34] = second compound 0.0949 µM, first compound 0.01 µM
[35] = second compound 0.3 µM, first compound 0.00316 µM
[36] = second compound 0.3 µM, first compound 0.01 µM
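Also: spheroids exposed to compounds for 7 days before viability read.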

SMILES: CCC(CC)c1cc(NC2CCC(N)C2)n2nccc2n1 (stereo unspecified) + CCn1c(-c2cccnc2C(C)OC)c2c3cc(ccc31)N1CCOC(CC(NC(=O)C(C(C)C)N(C)C(=O)C3(F)CCN(C(=O)C#CC(C)(C)N(C)C)CC3)C(=O)N3CCCC(N3)C(=O)OCC(C)(C)C2)C1
- IC50 (second compound 0.000949 µM): 1730 nM
- IC50 (second compound 0.003 µM): 1780 nM
- IC50 (second compound 0.00949 µM): 1880 nM
- IC50 (second compound 0.03 µM): 1890 nM
- IC50 (second compound 0.0949 µM): 1540 nM
- IC50 (second compound 0.3 µM): 1210 nM
- viability, T/C [1]: 105%
- viability, T/C [2]: 91.8%
- viability, T/C [3]: 90.4%
- viability, T/C [4]: 91.2%
- viability, T/C (second compound 0.000949 µM, first compound 3.16 µM): 4.89%
- viability, T/C (second compound 0.000949 µM, first compound 10 µM): 0.44%
- viability, T/C [5]: 96%
- viability, T/C [6]: 86.7%
- viability, T/C [7]: 98%
- viability, T/C [8]: 101%
- viability, T/C (second compound 0.003 µM, first compound 3.16 µM): 4.58%
- viability, T/C (second compound 0.003 µM, first compound 10 µM): 0.37%
- viability, T/C [9]: 99.4%
- viability, T/C [10]: 87.2%
- viability, T/C [11]: 91.9%
- viability, T/C [12]: 103%
- viability, T/C (second compound 0.00949 µM, first compound 3.16 µM): 12.8%
- viability, T/C (second compound 0.00949 µM, first compound 10 µM): 0.38%
- viability, T/C [13]: 107%
- viability, T/C [14]: 107%
- viability, T/C [15]: 97.7%
- viability, T/C [16]: 113%
- viability, T/C (second compound 0.03 µM, first compound 3.16 µM): 4.88%
- viability, T/C (second compound 0.03 µM, first compound 10 µM): 0.35%
- viability, T/C [17]: 111%
- viability, T/C [18]: 103%
- viability, T/C [19]: 108%
- viability, T/C [20]: 77.6%
- viability, T/C (second compound 0.0949 µM, first compound 3.16 µM): 4.31%
- viability, T/C (second compound 0.0949 µM, first compound 10 µM): 0.37%
- viability, T/C [21]: 102%
- viability, T/C [22]: 108%
- viability, T/C [23]: 98.2%
- viability, T/C [24]: 59.5%
- viability, T/C (second compound 0.3 µM, first compound 3.16 µM): 3.42%
- viability, T/C (second compound 0.3 µM, first compound 10 µM): 0.42%

SMILES: O=C(c1ccc(F)c(F)c1Nc1ccc(I)cc1F)N1CC(O)([C@@H]2CCCCN2)C1 + CCn1c(-c2cc(N3CCN(C)CC3)cnc2C(C)OC)c2c3cc(ccc31)-c1csc(n1)CC(NC(=O)C1CC1C)C(=O)N1CCCC(N1)C(=O)OCC(C)(C)C2
- IC50 (second compound 0.000949 µM): 64 nM
- IC50 (second compound 0.003 µM): 31.5 nM
- IC50 (second compound 0.00949 µM): < 3.16 nM
- IC50 (second compound 0.03 µM): < 3.16 nM
- IC50 (second compound 0.0949 µM): < 3.16 nM
- IC50 (second compound 0.3 µM): < 3.16 nM
- viability, T/C [25]: 92.7%
- viability, T/C [26]: 89.7%
- viability, T/C [1]: 83%
- viability, T/C [2]: 29.1%
- viability, T/C [3]: 8.1%
- viability, T/C [4]: 4.25%
- viability, T/C [27]: 114%
- viability, T/C [28]: 97.8%
- viability, T/C [5]: 47.8%
- viability, T/C [6]: 18.8%
- viability, T/C [7]: 6.27%
- viability, T/C [8]: 3.79%
- viability, T/C [29]: 43.6%
- viability, T/C [30]: 30.6%
- viability, T/C [9]: 13.6%
- viability, T/C [10]: 7.57%
- viability, T/C [11]: 4.59%
- viability, T/C [12]: 3.19%
- viability, T/C [31]: 14.9%
- viability, T/C [32]: 9.48%
- viability, T/C [13]: 6.73%
- viability, T/C [14]: 3.92%
- viability, T/C [15]: 3.2%
- viability, T/C [16]: 2.56%
- viability, T/C [33]: 6.07%
- viability, T/C [34]: 5.43%
- viability, T/C [17]: 4.04%
- viability, T/C [18]: 2.64%
- viability, T/C [19]: 2.57%
- viability, T/C [20]: 2.4%
- viability, T/C [35]: 5%
- viability, T/C [36]: 4.75%
- viability, T/C [21]: 2.99%
- viability, T/C [22]: 2.73%
- viability, T/C [23]: 2.91%
- viability, T/C [24]: 2.4%

SMILES: CCN1CCN(Cc2ccc(Nc3ncc(F)c(-c4cc(F)c5nc(C)n(C(C)C)c5c4)n3)nc2)CC1 + CCn1c(-c2cccnc2C(C)OC)c2c3cc(ccc31)N1CCOC(CC(NC(=O)C(C(C)C)N(C)C(=O)C3(F)CCN(C(=O)C#CC(C)(C)N(C)C)CC3)C(=O)N3CCCC(N3)C(=O)OCC(C)(C)C2)C1
- IC50 (second compound 0.000949 µM): > 1000 nM
- IC50 (second compound 0.003 µM): > 1000 nM
- IC50 (second compound 0.00949 µM): > 1000 nM
- IC50 (second compound 0.03 µM): > 1000 nM
- IC50 (second compound 0.0949 µM): > 1000 nM
- IC50 (second compound 0.3 µM): > 1000 nM
- viability, T/C [25]: 123%
- viability, T/C [26]: 105%
- viability, T/C [1]: 135%
- viability, T/C [2]: 140%
- viability, T/C [3]: 184%
- viability, T/C [4]: 126%
- viability, T/C [27]: 109%
- viability, T/C [28]: 95.8%
- viability, T/C [5]: 135%
- viability, T/C [6]: 160%
- viability, T/C [7]: 168%
- viability, T/C [8]: 128%
- viability, T/C [29]: 85.8%
- viability, T/C [30]: 116%
- viability, T/C [9]: 97.7%
- viability, T/C [10]: 162%
- viability, T/C [11]: 180%
- viability, T/C [12]: 132%
- viability, T/C [31]: 102%
- viability, T/C [32]: 136%
- viability, T/C [13]: 135%
- viability, T/C [14]: 155%
- viability, T/C [15]: 171%
- viability, T/C [16]: 110%
- viability, T/C [33]: 118%
- viability, T/C [34]: 134%
- viability, T/C [17]: 122%
- viability, T/C [18]: 142%
- viability, T/C [19]: 142%
- viability, T/C [20]: 90.7%
- viability, T/C [35]: 134%
- viability, T/C [36]: 113%
- viability, T/C [21]: 123%
- viability, T/C [22]: 116%
- viability, T/C [23]: 104%
- viability, T/C [24]: 58.6%
